Measurements published in PMC12527977, “Discovery of a novel tetrapeptide as glucose homeostasis modulator with bifunctionalities of targeting DPP‐IV and microbiota” (iMeta, 2025).
Read-outs that look alike come from different tables or passages of the source. Where a SMILES comes first, the peptide text is derived from it.

How the values were obtained:
[1] = Blood pharmacokinetics of VAMP, 10 mg/kg i.v. or p.o.; format: in vivo; conditions: mouse, po
Protocol: FIGURE 2 VAMP inhibits intestinal dipeptidyl peptidase IV (DPP‐IV) and increases the abundance of A. muciniphila. (A) The experimental scheme for (B–O) is shown, n = 6 mice/group. HFD‐fed mice were treated with PBS (vehicle group) or VAMP (50 mg/kg, VAMP group) for 8 weeks by oral gavage. (B) The body weight change, (C) FBG level, (D) intestinal active GLP‐1 levels, (E) plasma active GLP‐1 levels, (F) OGTT curve, (G) AUC of the OGTT, and (H) HOMA‐IR index were evaluated. (I) Intestinal permeability was measured by plasma fluorescence intensity after gavage with FITC‐dextran 4000. (J) The plasma levels of LPS, (K) TNF‐α, and (L) IL‐1β were determined. (M) Carnoy‐fixed colonic tissue sections were stained with Alcian blue/periodic acid‐Schiff. Scale bars, 100 µm. […] (O) The relative expression of Tjp1, Ocln, Cldn1, Cldn3, Cldn4, Cldn5, and Muc2 mRNAs in colonic tissue was determined. (P) The blood pharmacokinetics of 10 mg/kg VAMP administered by injection (i.v.) or gavage (p.o.) over time were evaluated. (Q) The tissue distribution of VAMP at the time of peak plasma concentration (30 min) after the administration of 10 mg/kg VAMP by gavage was determined (n = 4). […] (U) The change in bacterial abundance at the species level after VAMP treatment was determined via random forest analysis. […]
(§1) We first determined the VAMP metabolic kinetics in model mice.

[2] = biological target: DPP-IV (Homo sapiens, UniProt P27487); assay: DPP-IV inhibition in iPSC-induced intestinal organoids (supernatant, DPP-IV-Glo kit); format: cell-based; set-up: endogenous in cells; host or cells: iPSC-induced intestinal organoids; conditions: Fig 1R, 24 h, read-out: Inhibitory effect on DPP-IV; for inhibition at 100 µg/mL: VAMP 100 μg/mL; for inhibition at 200 µg/mL: VAMP 200 μg/mL; for inhibition at 500 µg/mL: VAMP 500 μg/mL
DPP-IV, sequence (P27487 whole entry): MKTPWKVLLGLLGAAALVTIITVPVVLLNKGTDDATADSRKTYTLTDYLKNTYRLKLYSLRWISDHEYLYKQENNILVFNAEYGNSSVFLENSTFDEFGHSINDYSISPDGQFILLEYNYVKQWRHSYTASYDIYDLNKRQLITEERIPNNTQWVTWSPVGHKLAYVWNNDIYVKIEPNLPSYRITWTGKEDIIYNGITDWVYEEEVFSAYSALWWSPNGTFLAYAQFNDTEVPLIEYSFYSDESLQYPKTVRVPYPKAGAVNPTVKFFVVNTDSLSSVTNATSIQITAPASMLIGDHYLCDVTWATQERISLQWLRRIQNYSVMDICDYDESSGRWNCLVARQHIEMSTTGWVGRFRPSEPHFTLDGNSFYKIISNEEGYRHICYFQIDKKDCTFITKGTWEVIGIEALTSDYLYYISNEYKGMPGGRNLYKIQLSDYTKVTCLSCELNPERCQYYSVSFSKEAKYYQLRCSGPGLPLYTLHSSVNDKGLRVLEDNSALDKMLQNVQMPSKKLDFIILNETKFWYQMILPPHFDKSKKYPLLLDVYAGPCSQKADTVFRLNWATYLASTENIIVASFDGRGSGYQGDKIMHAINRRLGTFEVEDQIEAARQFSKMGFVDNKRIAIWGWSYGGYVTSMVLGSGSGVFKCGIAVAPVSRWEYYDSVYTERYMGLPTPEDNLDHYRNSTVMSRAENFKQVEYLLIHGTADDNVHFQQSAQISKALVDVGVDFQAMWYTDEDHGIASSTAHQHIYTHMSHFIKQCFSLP
From the text: iPSC-induced intestinal organoids were established according to the manufacturer’s instructions (STEMdiff^TM Intestinal Organoid kit).

[3] = Tissue distribution of VAMP 30 min after 10 mg/kg by gavage; format: in vivo, mouse; conditions: for Tissue distribution, relative proportion in Heart / Tissue distribution, relative proportion in Intestinal content / Tissue distribution, relative proportion in Intestinal tissue / Tissue distribution, relative proportion in Kidney / Tissue distribution, relative proportion in Liver / Tissue distribution, relative proportion in Lung / Tissue distribution, relative proportion in Spleen: 10 mg/kg by gavage, 30 min
Protocol: FIGURE 2 VAMP inhibits intestinal dipeptidyl peptidase IV (DPP‐IV) and increases the abundance of A. muciniphila. (A) The experimental scheme for (B–O) is shown, n = 6 mice/group. HFD‐fed mice were treated with PBS (vehicle group) or VAMP (50 mg/kg, VAMP group) for 8 weeks by oral gavage. (B) The body weight change, (C) FBG level, (D) intestinal active GLP‐1 levels, (E) plasma active GLP‐1 levels, (F) OGTT curve, (G) AUC of the OGTT, and (H) HOMA‐IR index were evaluated. (I) Intestinal permeability was measured by plasma fluorescence intensity after gavage with FITC‐dextran 4000. (J) The plasma levels of LPS, (K) TNF‐α, and (L) IL‐1β were determined. (M) Carnoy‐fixed colonic tissue sections were stained with Alcian blue/periodic acid‐Schiff. Scale bars, 100 µm. (N) Blinded colonic mucus layer measurements were made from Alcian blue‐stained sections. (O) The relative expression of Tjp1, Ocln, Cldn1, Cldn3, Cldn4, Cldn5, and Muc2 mRNAs in colonic tissue was determined. (P) The blood pharmacokinetics of 10 mg/kg VAMP administered by injection (i.v.) or gavage (p.o.) over time were evaluated. (Q) The tissue distribution of VAMP at the time of peak plasma concentration (30 min) after the administration of 10 mg/kg VAMP by gavage was determined (n = 4). (R) PCoA was performed using the Bray‒Curtis distance. (S, T) Taxonomic cladograms were generated by LEfSe analysis. The blue color indicates enriched taxa in the VAMP group, and the red color indicates enriched taxa in the vehicle group. The size of each circle is proportional to the taxon's abundance. (U) The change in bacterial abundance at the species level after VAMP treatment was determined via random forest analysis. (V) Growth curve of A. muciniphila cultured in BHI media supplemented with VAMP (50 μM) or PBS (Vehicle) and then grown anaerobically. (W−Y) RNA‐seq analysis of the A. muciniphila cultured in BHI media supplemented with VAMP (50 μM) or PBS control (Vehicle) was performed (n = 3). (W) PCA of transcriptome. (X) Biofunction changes of A. muciniphila by VAMP treatment via KEGG enrichment analysis. (Y) Volcano plot of transcriptome sequencing of Vehicle and VAMP groups. (Z) Levels of peptidoglycan by VAMP treatment. *p < 0.05 and **p < 0.01 versus the vehicle group. AUC, area under the curve; BHI, brain heart infusion; FBG, fasting blood glucose; GLP‐1, glucagon‐like peptide‐1; HOMA‐IR, homeostatic model assessment of insulin resistance; IL‐1β, interleukin‐1β; LEfSe, linear discriminant analysis effect size; LPS, lipopolysaccharide; OGTT, oral glucose tolerance test; PCoA, principal coordinate analysis; TNF‐α, tumor necrosis factor α.
as §1

[4] = test system: porcine pepsase and trypsase; assay: Simulated digestive stability of peptides (pepsase then trypsase); format: in vitro ADME; conditions: in words; 5.0 mg/mL peptide, pepsase 5000 U/mL pH 3.0 37 °C 2 h, then trypsase 100 U/mL pH 7.0 37 °C 2 h, LC-MS
Protocol: The in vitro digestibility of the peptides was determined according to the method described by Ohanenye et al. with some modifications. Briefly, 5.0 mg/mL peptides were mixed with 5000 U/mL porcine pepsase (pH 3.0). The mixture was incubated with continuous shaking in a water bath at 37 ℃ for 2 h. Then, the mixture was adjusted to pH 7.0, and a final concentration of 100 U/mL trypsase was added, followed by continuous shaking at 37 ℃ for another 2 h. After digestion, the enzyme was inactivated, and the mixture was incubated in a water bath (100 ℃) for 20 min. Subsequently, the mixture was centrifuged at 6000 rpm for 20 min, after which the supernatants were collected for further analysis. The concentrations of peptides in the digestions and TPH were determined via AB SCIEX QTrap 6600+ (AB Sciex, Framingham, Massachusetts).

[5] = in vitro; format: in vitro ADME; conditions: cells or culture medium, VAMP (%) remaining
From the text: (§2) The levels of VAMP at different time points were quantified by targeted metabolomics.

[6] = test system: faeces-derived bacterial community; assay: in vitro; format: in vitro ADME
From the text: as §2

CSCC[C@H](NC(=O)[C@H](C)NC(=O)[C@@H](N)C(C)C)C(=O)N1CCC[C@H]1C(=O)O [VAMP] (H-VAMP-OH)
bioavailability ([1]; blood, mice, 10 mg/kg p.o. vs i.v., printed in picture Fig 2P): 10.5%
Tmax ([1]; plasma, 10 mg/kg by gavage, read-out: Time of peak plasma concentration (converted)): 30 min
inhibition at 100 µg/mL ([2]; replicate 1): 72.5%
inhibition at 100 µg/mL ([2]; replicate 2): 69.3%
inhibition at 100 µg/mL ([2]; replicate 3): 50.4%
inhibition at 200 µg/mL ([2]; replicate 1): 82.5%
inhibition at 200 µg/mL ([2]; replicate 2): 80.3%
inhibition at 200 µg/mL ([2]; replicate 3): 84.2%
inhibition at 500 µg/mL ([2]; replicate 1): 92.1%
inhibition at 500 µg/mL ([2]; replicate 2): 89.1%
inhibition at 500 µg/mL ([2]; replicate 3): 84.8%
Tissue distribution, relative proportion in Heart ([3]; animal 1): 0.7129%
Tissue distribution, relative proportion in Intestinal content ([3]; animal 1): 72.8435%
Tissue distribution, relative proportion in Intestinal tissue ([3]; animal 1): 17.3859%
Tissue distribution, relative proportion in Kidney ([3]; animal 1): 1.873%
Tissue distribution, relative proportion in Liver ([3]; animal 1): 2.36%
Tissue distribution, relative proportion in Lung ([3]; animal 1): 1.2931%
Tissue distribution, relative proportion in Spleen ([3]; animal 1): 3.531%
Tissue distribution, relative proportion in Heart ([3]; animal 2): 0.3824%
Tissue distribution, relative proportion in Intestinal content ([3]; animal 2): 73.0882%
Tissue distribution, relative proportion in Intestinal tissue ([3]; animal 2): 19.9706%
Tissue distribution, relative proportion in Kidney ([3]; animal 2): 1.279%
Tissue distribution, relative proportion in Liver ([3]; animal 2): 2.103%
Tissue distribution, relative proportion in Lung ([3]; animal 2): 0.9118%
Tissue distribution, relative proportion in Spleen ([3]; animal 2): 2.265%
Tissue distribution, relative proportion in Heart ([3]; animal 3): 0.4562%
Tissue distribution, relative proportion in Intestinal content ([3]; animal 3): 74.7307%
Tissue distribution, relative proportion in Intestinal tissue ([3]; animal 3): 19.1872%
Tissue distribution, relative proportion in Kidney ([3]; animal 3): 0.6681%
Tissue distribution, relative proportion in Liver ([3]; animal 3): 1.699%
Tissue distribution, relative proportion in Lung ([3]; animal 3): 0.5703%
Tissue distribution, relative proportion in Spleen ([3]; animal 3): 2.689%
Tissue distribution, relative proportion in Heart ([3]; animal 4): 0.5116%
Tissue distribution, relative proportion in Intestinal content ([3]; animal 4): 76.0476%
Tissue distribution, relative proportion in Intestinal tissue ([3]; animal 4): 16.2858%
Tissue distribution, relative proportion in Kidney ([3]; animal 4): 1.305%
Tissue distribution, relative proportion in Liver ([3]; animal 4): 2.163%
Tissue distribution, relative proportion in Lung ([3]; animal 4): 0.882%
Tissue distribution, relative proportion in Spleen ([3]; animal 4): 2.805%
VAMP remaining in the intestinal content at the time of peak plasma concentration ([3]; after gavage): 74.18%
Resistance to simulated gastric pepsase and trypsase digestion [4]: readily resistant
remaining at 3 h, 100 μM ([5]; 3 h): 98.5%
remaining at 6 h, 100 μM ([5]; 6 h): 84.6%
remaining at 12 h, 100 μM ([5]; 12 h): 51.7%
remaining at 36 h, 100 μM ([5]; 36 h): 2.1%
remaining at 48 h, 100 μM ([5]; 48 h): 0%
Degradation of VAMP in faeces-derived microbial community culture [6]: degraded by gut microbiota
